Results published in patent US12371428B2 (Exelixis, Inc., priority 2019, dated 2025).
pIC50: −log10 of the molar value.

Assays:
[1] = target: Human KDR (residues 790-1356) (Homo sapiens (Human), UniProt P35968); assay: Human KDR kinase assay, HTRF KinEase (Example B-2); type: biochemical; settings: protocol of Example B-2 (other compounds)
Method in brief: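 Human KDR residues 790-1356 (0.1 ng/well) in buffer with 5 mM MgCl2, 1 mM MnCl2, 1 mM DTT, biotinylated peptide substrate, ATP at Km (4.0 μM), 3% DMSO, 10 compound concentrations; 40 min, room temperature. EDTA stop, streptavidin-XL665/Eu-TK antibody HTRF read 665/620 nm; 4-parameter IC50.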

[2] = target: Human MER (residues 528-999) (Homo sapiens (Human), UniProt Q12866); assay: Human Mer kinase assay, HTRF KinEase (Example C-2); type: biochemical; settings: protocol of Example C-2 (other compounds)
Method in brief: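 IC50 values from 10 concentrations via 4-parameter logistic fit of […], with DMSO as 100% and 1 μM reference compound as 0% activity. Reaction: MER kinase domain 528-999, 1 ng/well, 40 μM ATP (Km), biotin peptide, 5 mM MgCl2, 1 mM DTT, 3% DMSO, room temperature 60 min; HTRF streptavidin-XL665/Eu-antibody detection.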

[3] = target: Met (phospho-Met, HGF-stimulated PC-3 prostate cancer cells) (Homo sapiens (Human), UniProt P08581); assay: Met autophosphorylation ELISA in PC-3 cells (Example F); type: cell-based; settings: cellular activity; Met autophosphorylation ELISA in PC-3 cells; read-out: c-Met IC50
Method in brief: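 PC-3 cells, serum-starved 3 h, were treated with compounds (8-point dose curve, 0.3% DMSO final) for 1 h, then stimulated with 100 ng/mL recombinant human HGF for 10 min. Lysate phospho-Met (panTyr) was quantified by sandwich ELISA; IC50 from 4-parameter logistic fit.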

[4] = target: KDR (phospho-KDR, VEGF165-stimulated HUVEC cells) (Homo sapiens (Human), UniProt P35968); assay: KDR autophosphorylation ELISA in HUVEC cells (Example G); type: cell-based; settings: cellular activity; KDR autophosphorylation ELISA in HUVEC cells
Method in brief: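 IC50 values derive from nonlinear curve fitting of phospho-KDR levels measured by ELISA and interpolated from a phosphoprotein standard. Beforehand, starved HUVECs received compound (0.3% DMSO vehicle) for one hour and were activated with VEGF165 at 100 ng/mL for 5 min.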

Met (phospho-Met, HGF-stimulated PC-3 prostate cancer cells), sequence (P08581 25-1390): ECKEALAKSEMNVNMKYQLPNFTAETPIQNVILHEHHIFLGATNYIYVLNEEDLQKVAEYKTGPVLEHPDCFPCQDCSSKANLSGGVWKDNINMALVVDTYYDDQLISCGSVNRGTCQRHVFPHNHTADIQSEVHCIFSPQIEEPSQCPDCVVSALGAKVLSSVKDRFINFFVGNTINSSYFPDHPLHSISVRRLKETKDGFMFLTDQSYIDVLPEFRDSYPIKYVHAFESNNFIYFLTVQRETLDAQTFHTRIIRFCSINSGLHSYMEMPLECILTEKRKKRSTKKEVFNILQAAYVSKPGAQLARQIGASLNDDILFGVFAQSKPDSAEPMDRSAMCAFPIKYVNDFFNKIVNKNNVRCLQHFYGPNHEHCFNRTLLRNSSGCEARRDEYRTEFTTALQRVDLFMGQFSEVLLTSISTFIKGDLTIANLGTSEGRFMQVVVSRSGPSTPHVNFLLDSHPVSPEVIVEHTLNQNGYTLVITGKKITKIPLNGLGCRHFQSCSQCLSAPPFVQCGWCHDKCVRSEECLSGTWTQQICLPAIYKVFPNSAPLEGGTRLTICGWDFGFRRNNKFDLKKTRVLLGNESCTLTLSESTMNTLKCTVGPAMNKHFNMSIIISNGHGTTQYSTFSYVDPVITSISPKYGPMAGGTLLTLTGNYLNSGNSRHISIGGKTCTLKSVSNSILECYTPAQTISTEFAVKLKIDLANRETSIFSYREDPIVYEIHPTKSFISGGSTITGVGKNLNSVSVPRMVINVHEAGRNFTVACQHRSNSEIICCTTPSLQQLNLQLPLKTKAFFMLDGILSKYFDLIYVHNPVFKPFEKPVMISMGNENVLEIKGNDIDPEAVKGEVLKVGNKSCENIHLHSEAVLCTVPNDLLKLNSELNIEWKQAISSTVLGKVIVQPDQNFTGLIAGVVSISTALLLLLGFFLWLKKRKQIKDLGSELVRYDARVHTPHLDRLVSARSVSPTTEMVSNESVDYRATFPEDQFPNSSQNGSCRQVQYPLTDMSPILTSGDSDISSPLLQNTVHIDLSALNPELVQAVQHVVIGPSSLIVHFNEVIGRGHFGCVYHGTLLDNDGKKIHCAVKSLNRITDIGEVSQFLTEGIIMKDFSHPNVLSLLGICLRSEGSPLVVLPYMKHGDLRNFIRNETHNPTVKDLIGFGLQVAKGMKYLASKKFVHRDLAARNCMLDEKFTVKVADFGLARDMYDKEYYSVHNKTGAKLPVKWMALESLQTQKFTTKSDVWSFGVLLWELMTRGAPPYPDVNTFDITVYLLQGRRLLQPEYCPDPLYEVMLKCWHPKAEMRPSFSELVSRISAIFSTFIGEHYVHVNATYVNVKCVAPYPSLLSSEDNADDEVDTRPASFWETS
KDR (phospho-KDR, VEGF165-stimulated HUVEC cells), sequence (P35968 20-1356): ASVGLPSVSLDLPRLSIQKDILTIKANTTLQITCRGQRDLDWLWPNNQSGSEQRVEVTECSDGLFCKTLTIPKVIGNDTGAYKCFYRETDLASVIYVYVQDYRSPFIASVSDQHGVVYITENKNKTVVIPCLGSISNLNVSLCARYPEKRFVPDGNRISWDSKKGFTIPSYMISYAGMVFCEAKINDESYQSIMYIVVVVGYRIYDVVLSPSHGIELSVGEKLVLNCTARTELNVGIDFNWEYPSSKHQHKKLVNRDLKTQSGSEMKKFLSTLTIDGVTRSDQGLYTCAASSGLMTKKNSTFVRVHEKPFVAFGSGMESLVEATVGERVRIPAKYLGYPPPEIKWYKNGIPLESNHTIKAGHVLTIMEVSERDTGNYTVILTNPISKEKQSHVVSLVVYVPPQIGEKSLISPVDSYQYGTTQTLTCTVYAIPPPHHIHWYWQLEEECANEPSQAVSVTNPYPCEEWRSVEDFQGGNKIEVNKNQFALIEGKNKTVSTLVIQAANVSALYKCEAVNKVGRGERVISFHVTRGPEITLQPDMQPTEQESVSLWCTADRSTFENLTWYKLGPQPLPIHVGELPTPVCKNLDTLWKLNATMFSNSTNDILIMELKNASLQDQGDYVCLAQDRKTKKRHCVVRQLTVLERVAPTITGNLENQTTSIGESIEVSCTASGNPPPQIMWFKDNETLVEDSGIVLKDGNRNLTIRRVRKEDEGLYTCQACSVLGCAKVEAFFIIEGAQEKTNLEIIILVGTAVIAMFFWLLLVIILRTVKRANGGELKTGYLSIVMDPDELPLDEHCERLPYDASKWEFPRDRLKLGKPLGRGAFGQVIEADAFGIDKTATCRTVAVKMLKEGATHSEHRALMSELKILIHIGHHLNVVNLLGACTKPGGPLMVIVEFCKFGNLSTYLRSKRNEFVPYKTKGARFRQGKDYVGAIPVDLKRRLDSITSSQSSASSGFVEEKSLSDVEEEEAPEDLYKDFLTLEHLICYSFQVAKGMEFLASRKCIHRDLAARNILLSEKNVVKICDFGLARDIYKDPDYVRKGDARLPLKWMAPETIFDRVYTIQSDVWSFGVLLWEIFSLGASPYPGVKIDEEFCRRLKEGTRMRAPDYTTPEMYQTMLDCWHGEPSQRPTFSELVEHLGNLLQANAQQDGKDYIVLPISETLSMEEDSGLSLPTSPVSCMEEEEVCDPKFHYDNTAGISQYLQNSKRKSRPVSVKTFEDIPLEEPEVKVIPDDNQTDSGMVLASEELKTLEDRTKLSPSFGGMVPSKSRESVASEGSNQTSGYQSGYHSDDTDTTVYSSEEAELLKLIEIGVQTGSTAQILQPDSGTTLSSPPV
Human KDR (residues 790-1356), sequence (P35968 790-1356): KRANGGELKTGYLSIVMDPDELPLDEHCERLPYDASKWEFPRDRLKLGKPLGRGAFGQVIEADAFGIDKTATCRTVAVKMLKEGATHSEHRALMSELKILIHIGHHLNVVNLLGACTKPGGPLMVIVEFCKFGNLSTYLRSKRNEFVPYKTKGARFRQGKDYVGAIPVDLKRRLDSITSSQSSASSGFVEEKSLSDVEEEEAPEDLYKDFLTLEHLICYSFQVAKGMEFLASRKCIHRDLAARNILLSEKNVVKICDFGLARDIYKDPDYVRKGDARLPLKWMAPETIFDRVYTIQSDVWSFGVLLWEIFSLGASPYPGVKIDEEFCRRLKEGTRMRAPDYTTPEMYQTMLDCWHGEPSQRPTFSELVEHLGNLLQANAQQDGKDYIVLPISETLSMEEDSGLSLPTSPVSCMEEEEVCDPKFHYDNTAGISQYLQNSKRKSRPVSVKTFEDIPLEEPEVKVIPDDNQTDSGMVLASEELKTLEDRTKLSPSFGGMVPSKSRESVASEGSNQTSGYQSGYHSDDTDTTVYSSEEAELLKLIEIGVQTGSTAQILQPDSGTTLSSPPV
Human MER (residues 528-999), sequence (Q12866 528-999): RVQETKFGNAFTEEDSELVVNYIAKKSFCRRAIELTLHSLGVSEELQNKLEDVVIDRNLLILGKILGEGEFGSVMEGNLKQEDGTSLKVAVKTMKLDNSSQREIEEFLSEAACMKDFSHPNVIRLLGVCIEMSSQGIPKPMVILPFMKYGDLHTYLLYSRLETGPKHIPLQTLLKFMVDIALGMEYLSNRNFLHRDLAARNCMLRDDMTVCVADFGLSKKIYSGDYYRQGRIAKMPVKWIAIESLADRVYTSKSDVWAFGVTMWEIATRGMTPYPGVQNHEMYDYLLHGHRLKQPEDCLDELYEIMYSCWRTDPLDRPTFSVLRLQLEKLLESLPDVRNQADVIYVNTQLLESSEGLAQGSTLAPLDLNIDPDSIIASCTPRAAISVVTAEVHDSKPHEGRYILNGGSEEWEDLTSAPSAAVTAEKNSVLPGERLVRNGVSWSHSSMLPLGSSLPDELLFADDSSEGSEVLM

Row | Structure (SMILES) | pIC50 [1] | pIC50 [2] | pIC50 [3] | pIC50 [4]
1 | CCc1cc2nccc(Oc3ccc(NC(=O)c4cnc(C)c(-c5ccc(F)cc5)c4O)cc3F)c2nc1OC [Compound 420, N-[4-[(7-ethyl-6-methoxy-1,5-naphthyridin-4-yl)oxy]-3-fluorophenyl]-5-(4-fluorophenyl)-4-hydroxy-6-methylpyridine-3-carboxamide] | 6.52 to 7.00 | > 7.00 | > 7.00 | > 7.00
2 | C=Cc1cc2nccc(Oc3ccc(NC(=O)c4cnc(C)c(-c5ccc(F)cc5)c4O)cc3F)c2nc1OC [Compound 422, N-[4-[(7-ethenyl-6-methoxy-1,5-naphthyridin-4-yl)oxy]-3-fluorophenyl]-5-(4-fluorophenyl)-4-hydroxy-6-methylpyridine-3-carboxamide] | > 7.00 | > 7.00 | > 7.00 | > 7.00
3 | C=Cc1cc2nccc(Oc3ccc(NC(=O)c4cnc(C)c(-c5ccc(F)cc5C)c4O)cc3F)c2nc1OC [Compound 423, N-[4-[(7-ethenyl-6-methoxy-1,5-naphthyridin-4-yl)oxy]-3-fluorophenyl]-5-(4-fluoro-2-methylphenyl)-4-hydroxy-6-methylpyridine-3-carboxamide] | < 6.52 | > 7.00 | > 7.00 | > 7.00
4 | COc1cc2nccc(Oc3ccc(NC(=O)c4cnc(C)c(-c5ccc(F)cc5)c4O)cc3F)c2nc1OCCCN1CCOCC1 [Compound 424, N-[3-fluoro-4-[[7-methoxy-6-(3-morpholin-4-ylpropoxy)-1,5-naphthyridin-4-yl]oxy]phenyl]-5-(4-fluorophenyl)-4-hydroxy-6-methylpyridine-3-carboxamide] | > 7.00 | > 7.00 | > 7.00 | > 7.00

Continued, values first:

Row | pIC50 [1] | pIC50 [2] | pIC50 [3] | pIC50 [4] | Structure (SMILES)
5 | < 6.52 | > 7.00 | > 7.00 | > 7.00 | CCc1cnc2c(Oc3ccc(NC(=O)c4cnc(C)c(-c5ccc(F)cc5C)c4O)cc3F)ccnc2c1 [Compound 419, N-[4-[(7-ethyl-1,5-naphthyridin-4-yl)oxy]-3-fluorophenyl]-5-(4-fluoro-2-methylphenyl)-4-hydroxy-6-methylpyridine-3-carboxamide]
6 | < 6.52 | > 7.00 | > 7.00 | > 7.00 | CCc1cc2nccc(Oc3ccc(NC(=O)c4cnc(C)c(-c5ccc(F)cc5C)c4O)cc3F)c2nc1OC [Compound 421, N-[4-[(7-ethyl-6-methoxy-1,5-naphthyridin-4-yl)oxy]-3-fluorophenyl]-5-(4-fluoro-2-methylphenyl)-4-hydroxy-6-methylpyridine-3-carboxamide]
7 | > 7.00 | > 7.00 | > 7.00 | > 7.00 | COc1cc2nccc(Oc3ccc(NC(=O)c4cnc(C)c(-c5ccc(F)cc5C)c4O)cc3F)c2nc1OCCCN1CCOCC1 [Compound 425, N-[3-fluoro-4-[[7-methoxy-6-(3-morpholin-4-ylpropoxy)-1,5-naphthyridin-4-yl]oxy]phenyl]-5-(4-fluoro-2-methylphenyl)-4-hydroxy-6-methylpyridine-3-carboxamide]
8 | 6.52 to 7.00 | > 7.00 | > 7.00 | > 7.00 | Cc1cc2nccc(Oc3ccc(NC(=O)c4cnc(C)c(-c5ccc(F)cc5)c4O)cc3F)c2nc1F [Compound 426, N-[3-fluoro-4-[(6-fluoro-7-methyl-1,5-naphthyridin-4-yl)oxy]phenyl]-5-(4-fluorophenyl)-4-hydroxy-6-methylpyridine-3-carboxamide]
9 | < 6.52 | > 7.00 | > 7.00 | > 7.00 | Cc1cc(F)ccc1-c1c(C)ncc(C(=O)Nc2ccc(Oc3ccnc4cc(C)c(F)nc34)c(F)c2)c1O [Compound 427, N-[3-fluoro-4-[(6-fluoro-7-methyl-1,5-naphthyridin-4-yl)oxy]phenyl]-5-(4-fluoro-2-methylphenyl)-4-hydroxy-6-methylpyridine-3-carboxamide]
